Measurements reported in patent publication US7462605B2, “Phosphoramidate compounds and methods of use” (Celmed Oncology (USA), Inc., priority 2002, dated 2008).
Each block holds one compound with its values, some of them ahead of it.

How the values were obtained:
rHuTS = target: T1, rHuTS (Homo sapiens, UniProt P04818); test: Inhibition of rHuTS reactions by Tomudex and 5-FdUMP (initial rates); type: biochemical; details: for initial rate of rHuTS reaction with inhibitor / rate as % of No Inhibitor: inhibitor 500 nM
T1 construct: His tag (from pET-28a(+)) (N); made in house; host or cells: E. coli BL21 (DE3)/pET-28a(+)
Method: (§1) Enzyme Assays and Kinetic Measurements. Thymidylate synthase assays were done in 96 well Costar UV transparent plates in a reaction volume of 200 μL, consisting of 40 mM Tris pH 7.5, 25 mM MgCl2, 1 mM EDTA, 25 mM-mercaptoethanol, 125M dUMP, and 65 μM N5, N10-methylene tetrahydrofolate indicated. Tetrahydrofolate stock solutions were prepared by dissolving tetrahydrofolic acid (Sigma) directly into 0.2M Tris pH 7.5, 0.5 M-mercaptoethanol; stock solutions were stored at −80° C. N5, N10-methylene tetrahydrofolate was prepared by adding 12 μl of 3.8% formaldehyde to 1 ml of a 0.65 mM solution of tetrahydrofolate and incubating for 5 minutes at 37° C. N5, N10-methylene tetrahydrofolate was kept on ice and used within 2 hours of preparation.
Conversion of BVdUMP to fluorescent product(s) by thymidylate synthase was measured in 200 μl thymidylate synthase reactions containing 125M BVdUMP in 96 well Dynex Microfluor Black “U” bottom microtiter plates using an excitation wavelength of 340 nm and emission wavelength of 595 nm. Fluorescence was measured with a Tecan Spectrafluor Plus fluorimeter.

MCF7TDX cells = test: 96-well combination cytotoxicity assay (crystal violet) with NB1011, MCF7TDX; type: cell-based, human; details: drug combined with NB1011, MCF7TDX; for CI (average combination index): 96-well crystal violet, 72 hour; on Interaction: key: Syn = synergy; Ant = antagonism; Add = additivity
Method: Cell lines: Normal human colon epithelial cells (CCD18co) and skin fibroblasts (Det55 1) were purchased from ATCC (Rockville,Md.). MCF7TDX, human breast carcinoma cells resistant to 2 μM Tomudex were obtained from Dr. Patrick Johnston, Queens University, Belfast.
The medium was renewed or the cells were passaged about every three days to maintain optimal growth conditions. Normal cells were passaged a maximum of 15 times to avoid senescence.
Cytotoxicity Studies: 384-well interaction screening assay. 500 cells per well were transferred to a 384-well tissue culture plate (Corning Inc., Corning, N.Y.) and allowed to attach for 24 hours in standard culture conditions. […] 96-well combination cytotoxicity assay. […] Compounds were then applied in duplicate half log serial dilutions. Each compound was tested separately, and mixed together at a single molar ratio approximately equal to the ratio of the individual IC50 values. After an additional 72 hour incubation, cells were washed once with PBS and stained with 0.5% crystal violet in methanol. Plates were washed gently in water to remove unbound stain and allowed to dry overnight. […] Sigmoid curves were fit according to the Hill inhibitory Emax model, and IC50 calculated as the average of three or more separate determinations. […] Briefly, the ICso and the slope parameter (m) for each agent alone were determined from the median effect plot, an x,y plot of log(D) vs log (fa/fu) based on Chou's median effect equation: fa/fu=(D/Dm)^m [Equation 1]
(§2) Only experiments with linear correlation coefficients (r) >0.9 were accepted for analysis. A combination index (CI) was then calculated to assess synergism or antagonism according to the following equation which assumes an independent mechanism of drug action (mutual exclusivity): CI=(D)1/(Dx)1+(D)2/(Dx)2+(D)1(D)2/(Dx)1 (Dx)2 [Equation 2]
(§3) where (D)1 and (D)2 are the concentrations of drug 1 and drug 2 which combined produce x% inhibition, and (Dx)1 and (Dx)2 are the concentrations of each drug which alone produce x% inhibition. CI=1 indicates an additive interaction, CI<1 indicates synergy, and CI>1 indicates antagonism. For each experiment Cl's from several different effect levels and concentrations of a constant molar ratio were averaged.

[1] = test system: CCD18co normal colon epithelial cells; test: 96-well combination cytotoxicity assay (crystal violet) with NB1011, CCD18co; type: cell-based, human; details: drug combined with NB1011, CCD18co; for CI (average combination index): 96-well crystal violet, 72 hour
Method: (§4) Cell lines: Normal human colon epithelial cells (CCD18co) and skin fibroblasts (Det55 1) were purchased from ATCC (Rockville,Md.). MCF7TDX, human breast carcinoma cells resistant to 2 μM Tomudex were obtained from Dr. Patrick Johnston, Queens University, Belfast. […] The MCF7TDX and the H630R10 cell lines have been previously described in Drake, J. C. et al. (1996) and Copur, S. et al. (1995) respectively.
(§5) Culture Conditions: All cells were cultured under standard conditions of 37° C., 95% humidified air, 5% CO2 in RPMI 1640 culture medium containing 10% fetal calf serum (Life Technologies) and penicillin/streptomycin/fungizone. […] The medium was renewed or the cells were passaged about every three days to maintain optimal growth conditions. Normal cells were passaged a maximum of 15 times to avoid senescence.
(§6) Cytotoxicity Studies: 384-well interaction screening assay. 500 cells per well were transferred to a 384-well tissue culture plate (Corning Inc., Corning, N.Y.) and allowed to attach for 24 hours in standard culture conditions. Compounds were then applied in a bidirectional (checker board) pattern (Chou, T. C. and Talalay, P. (1984)). Following a 5-day incubation, the redox indicator dye, alamarBlue (AccuMed International, Westlake, Ohio) was added to each well at a 10% v/v ratio, and fluorescence was monitored at 535 excitation, 595 emission. Cytotoxic effect levels and drug interactions were assessed by the combination index method (Chou, T. C. and Talalay, P. (1984) and Bible, K. C. et al. (1997)), described briefly below. 96-well combination cytotoxicity assay. Exponentially growing cells were transferred at a density of 1.0-5.5×10^3 cells per well to a 96-well tissue culture plate and allowed to attach for 24 hours. Compounds were then applied in duplicate half log serial dilutions. Each compound was tested separately, and mixed together at a single molar ratio approximately equal to the ratio of the individual IC50 values. After an additional 72 hour incubation, cells were washed once with PBS and stained with 0.5% crystal violet in methanol. Plates were washed gently in water to remove unbound stain and allowed to dry overnight. […] Sigmoid curves were fit according to the Hill inhibitory Emax model, and IC50 calculated as the average of three or more separate determinations. Where applicable, the combination index for multiple drug effects was calculated according to the median-effect principle (Chou, T. C. and Talalay, P. (1984)) using the CalcuSyn software from Biosoft (Ferguson, Mo.). Briefly, the ICso and the slope parameter (m) for each agent alone were determined from the median effect plot, an x,y plot of log(D) vs log (fa/fu) based on Chou's median effect equation: fa/fu=(D/Dm)^m [Equation 1]
as §2, §3

[2] = test system: Det551 normal skin fibroblasts; test: 96-well combination cytotoxicity assay (crystal violet) with NB1011, Det551; type: cell-based, human; details: for Interaction: drug combined with NB1011, Det551; for CI (average combination index): drug combined with NB1011, Det551, 96-well crystal violet, 72 hour; on Interaction: key: Syn = synergy; Ant = antagonism; Add = additivity
Method: as §4, §5, §6, §2, §3

Lactobacillus casei TS = target: T2, Lactobacillus casei TS (Lacticaseibacillus casei, UniProt P00469); details: cited from earlier work
T2 sequence (P00469 1-316): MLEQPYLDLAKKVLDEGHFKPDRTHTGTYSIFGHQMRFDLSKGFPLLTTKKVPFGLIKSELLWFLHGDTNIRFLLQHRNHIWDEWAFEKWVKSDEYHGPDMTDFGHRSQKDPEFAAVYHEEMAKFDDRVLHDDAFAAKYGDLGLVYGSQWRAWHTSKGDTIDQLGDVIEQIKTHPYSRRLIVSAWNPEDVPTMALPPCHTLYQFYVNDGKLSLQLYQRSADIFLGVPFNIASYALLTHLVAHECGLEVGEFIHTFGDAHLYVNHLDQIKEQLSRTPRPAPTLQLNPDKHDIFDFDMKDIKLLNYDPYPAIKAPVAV

[3] = target: T3, rHuTS (recombinant human thymidylate synthase) (Homo sapiens, UniProt P04818); test: Enzyme kinetics of rHuTS with dUMP and BVdUMP; type: biochemical; details: rHuTS
T3 construct: His tag (from pET-28a(+)) (N); made in house; host or cells: E. coli BL21 (DE3)/pET-28a(+)
Method: Enzyme Preparation. Cloned human thymidylate synthase plasmid pBCHTS was subcloned into E. coli. BL21 (DE3)/pET-28a(+) (Novagen) using the Ndel ñSacI insertion site, in order to add an amino terminal His tag. Enzyme was expressed in E. coli. by induction with IPTG, and purified by affinity chromatography on a Ni^2+ His Bind metal chelation resin (Novagen). The column Ni^2+ His Bind metal chelation column was washed with 20 mM Tris pH 7.9, 5 mM imidazole, 0.5M NaCl; thymidylate synthase activity was eluted with 20 mM Tris pH 7.9, 60 mM imidazole, 0.5M NaCl.
as §1
Enzyme kinetic constants (Km and Vmax) were determined for the human thymidylate synthase substrates dUMP and BVdUMP using the enzyme assay conditions described above. The initial rates of the enzyme reactions was determined by measuring the increase in A340 for the reaction with dUMP, and decrease in A294 for the reaction with BVdUMP. The catalytic efficiency of the enzyme (Kcat/Km) was calculated from the kinetic constants Km and Vmax.

[4] = BVdUMP reaction, read-out: Kl (of dUMP)

T3 sequence (P04818 whole entry): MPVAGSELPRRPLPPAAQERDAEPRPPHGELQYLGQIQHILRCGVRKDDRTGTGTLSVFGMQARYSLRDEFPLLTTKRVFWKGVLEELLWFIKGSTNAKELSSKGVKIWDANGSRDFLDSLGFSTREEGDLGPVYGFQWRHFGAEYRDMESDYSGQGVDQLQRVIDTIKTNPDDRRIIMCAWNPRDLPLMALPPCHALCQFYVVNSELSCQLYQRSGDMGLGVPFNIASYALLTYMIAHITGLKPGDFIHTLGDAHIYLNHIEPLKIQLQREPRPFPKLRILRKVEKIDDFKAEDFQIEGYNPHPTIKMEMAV
T1 sequence (P04818 whole entry): as above

initial rate of rHuTS reaction with inhibitor (rHuTS; BVdUMP + THF): 67 ± 3 RFU/min | initial rate of rHuTS reaction with inhibitor (rHuTS; BVdUMP − THF): 34 ± 3 RFU/min | initial rate of rHuTS reaction with inhibitor (rHuTS; dUMP + THF): 690 ± 40 nmol/min
SMILES: Cc1nc2ccc(CN(C)c3ccc(C(=O)N[C@@H](CCC(=O)O)C(=O)O)s3)cc2c(=O)[nH]1 [Tomudex]

SMILES: O=C1[O][Pt]2([NH][C@@H]3CCCC[C@H]3[NH]2)[O]C1=O [Oxaliplatin]
Interaction (MCF7TDX cells): Ant

SMILES: O=[N+]([O-])c1ccc(CSc2ncnc3c2ncn3C2OC(CO)C(O)C2O)cc1 (stereo not shown) [p-Nitrobenzyl-Thioinosine (NBMPR), p-nitrobenzylthioinosine]
Interaction [1]: Ant | CI (average combination index) [1]: 3.93 | Interaction [2]: Ant | CI (average combination index) [2]: 1.43 | Interaction (MCF7TDX cells): Syn | CI (average combination index) (MCF7TDX cells): 0.57

SMILES: O=c1ccn([C@H]2C[C@H](O)[C@@H](COP(=O)(O)O)O2)c(=O)[nH]1 [dUMP]
initial rate of rHuTS reaction, No Inhibitor (rHuTS; dUMP + THF, 30° C., increase in A340): 1500 ± 20 nmol/min | Ki (Lactobacillus casei TS; [4]): 2 µM | Kcat (Lactobacillus casei TS): 6.4 s⁻¹ | Km (Lactobacillus casei TS; substrate): 3 µM | Kcat [3]: 0.2 s⁻¹ | form of inhibition of the BVdUMP reaction (Michaelis-Menton kinetics) [3]: competitive inhibition | Ki [3, 4]: 17.5 µM | Km ([3]; substrate): 7.7 µM

SMILES: CC[C@]1(O)C[C@@H]2CN(CCc3c([nH]c4ccccc34)[C@@](C(=O)OC)(c3cc4c(cc3OC)N(C)[C@H]3[C@@](O)(C(=O)OC)[C@H](OC(C)=O)[C@]5(CC)C=CCN6CC[C@]43[C@@H]65)C2)C1 [Vinblastine]
Interaction [1]: Syn | Interaction [2]: Syn | Interaction (MCF7TDX cells): Ant

SMILES: COc1cccc2c1C(=O)c1c(O)c3c(c(O)c1C2=O)C[C@@](O)(C(=O)CO)C[C@@H]3O[C@H]1C[C@H](N)[C@H](O)[C@H](C)O1 [Doxorubicin]
Interaction (MCF7TDX cells): Ant

SMILES: OCCN(CCO)c1nc(N2CCCCC2)c2nc(N(CCO)CCO)nc(N3CCCCC3)c2n1 [Dipyridamole, dipyridamole]
Interaction [1]: Ant | CI (average combination index) [1]: 1.30 | Interaction [2]: Add | CI (average combination index) [2]: 1.17 | Interaction (MCF7TDX cells): Syn | CI (average combination index) (MCF7TDX cells): 0.51

SMILES: O=c1[nH]c(=O)n([C@H]2C[C@H](O)[C@@H](COP(=O)(O)O)O2)cc1F [5-FdUMP]
initial rate of rHuTS reaction with inhibitor (rHuTS; BVdUMP + THF): 44 ± 2 RFU/min | rate as % of No Inhibitor (rHuTS; BVdUMP + THF): (40%) | initial rate of rHuTS reaction with inhibitor (rHuTS; BVdUMP − THF): 93 ± 13 RFU/min | rate as % of No Inhibitor (rHuTS; BVdUMP − THF): (129%) | initial rate of rHuTS reaction with inhibitor (rHuTS; dUMP + THF): 290 ± 70 nmol/min | rate as % of No Inhibitor (rHuTS; dUMP + THF): (19%)
